In EPA's ToxValDB 9.5:
Values joined by “and” are separate entries in the source; they are usually repeats but may differ in a detail not shown here. Equal values may be shown once.

Test system: Rattus norvegicus
[1] = subchronic, duration: 90 days, oral, diet, M/F, no effects
[2] = subchronic, duration: 90 days, oral, diet, M/F, Sprague-Dawley, no effects

CC1CCCCC1NC(=O)c1c(F)c(F)c(F)c(F)c1F (stereo not drawn) [2,3,4,5,6-Pentafluoro-N-(2-methylcyclohexyl)benzamide]
NOAEL (subchronic, duration: 90 days, oral, diet, M/F, Wistar, clinical signs): 55 mg/kg-day

CC(C)=CCC/C(C)=C/C=C/C(C)=C/C=C/C(C)=C/C=C/C=C(C)/C=C/C=C(C)/C=C/C=C(\C)CCC=C(C)C [all-trans-Lycopene]
NOAEL (chronic, duration: 1 years, clinical chemistry): 50 mg/kg-day

CCCC(CCC)NC(=O)c1ccc2c(c1)OCO2 [N-(1-Propylbutyl)-1,3-benzodioxole-5-carboxamide]
NOEL (chronic, duration: 93 days): 20 mg/kg-day

CCCCC(CC)COC(=O)c1ccccc1C(=O)OCC(CC)CCCC (stereo not drawn) [Di(2-ethylhexyl) phthalate]
NOAEL (developmental, Sprague-Dawley, development): 5 mg/kg-day

Cc1ccc(C(C)C)cc1 [p-Cymene]
NOAEL (chronic, duration: 6 months, oral, gavage, F, organ weight): 154 mg/kg-day

C#CCN1C(=O)COc2cc(F)c(N3C(=O)C4=C(CCCC4)C3=O)cc21 [Flumioxazin]
NOAEL (chronic, duration: 2 years, hematological): 1.8 mg/kg-day | NOAEL (developmental, development): 3 mg/kg-day | NOAEL (subchronic, duration: 90 days, oral, hematological): 2.2 mg/kg-day

CCCCCCCCCCCC[N+](C)(C)[O-] [N,N-Dimethyldodecylamine-N-oxide]
NOAEL (chronic, duration: 2 years, oral, diet): 50 mg/kg-day

CC1=C(/C=C/C(C)=C/C=C/C(C)=C/C=C/C=C(C)/C=C/C=C(\C)C=O)C(C)(C)CCC1 [Apocarotenal]
NOAEL (subchronic, duration: 13 weeks, histopathology: nonneoplastic): 30 mg/kg-day | LOAEL (subchronic, duration: 13 weeks, oral, M/F, Sprague-Dawley, histopathology: nonneoplastic): 10 mg/kg-day

CCCCC/C=C/C/C=C/CCCCCCCC(=O)O[C@H](COC(=O)CCCCCCCCCCCCCCC)COP(=O)([O-])OCC[N+](C)(C)C [Lecithin]
NOAEL (chronic, duration: 24 weeks, oral, gavage, Wistar, no effects): 3750 mg/kg-day

O=Cc1cc2ccccc2o1 [2-Benzofurancarboxaldehyde]
NOEL (subchronic, duration: 90 days, oral, diet): 25 mg/kg-day

COc1ccc(CCC(=O)c2c(O)cc(O[C@@H]3O[C@H](CO)[C@@H](O)[C@H](O)[C@H]3O[C@@H]3O[C@@H](C)[C@H](O)[C@@H](O)[C@H]3O)cc2O)cc1O [Neohesperidin dihydrochalcone]
NOAEL (repeat dose other, no effects): 500 mg/kg-day

CC(=O)c1ccccn1 [1-(2-Pyridyl)-1-ethanone]
NOAEL (subchronic, duration: 90 days, oral, gavage, M/F, hematological): 37 mg/kg-day

CC(=O)c1ccc(C)[nH]1 [1-(5-Methyl-1H-pyrrol-2-yl)ethan-1-one]
NOAEL (subchronic, duration: 90 days, oral, gavage, M, hematological): 48 mg/kg-day

CCCCCC(C)=O [2-Heptanone]
NOAEL (subchronic, duration: 13 weeks, oral, gavage, M/F, organ weight): 20 mg/kg-day

O=C(/C=C/c1ccc(O)c(O)c1)O[C@H](Cc1ccc(O)c(O)c1)C(=O)O [Rosmarinic acid]
NOAEL (subchronic, duration: 90 days, oral, gavage, M/F, Sprague-Dawley, no effects): 300 mg/kg-day

C=C1CC[C@H]2O[C@]2(C)CC[C@@H]2[C@@H]1CC2(C)C [(-)Carophyllene oxide]
NOAEL (subchronic, duration: 90 days, oral, diet, M/F, Sprague-Dawley, histopathology: nonneoplastic): 109 mg/kg-day

Cc1ccc2oc(=O)ccc2c1 [6-Methyl coumarin]
NOEL (subchronic, duration: 13 weeks): 150 mg/kg-day

C=C1CCC2(C(C)C)CC12 (stereo not drawn) [Sabinen]
NOAEL (subchronic, duration: 90 days, oral, diet, M/F, Sprague-Dawley, hematological): 222 mg/kg-day

NS(=O)(=O)c1ccccc1C(F)(F)F [2-(Trifluoromethyl)benzenesulfonamide]
NOAEL (short-term, duration: 28 days, organ weight): 15 mg/kg-day

CCCCCCCCCCCCCCCCCC(=O)OC(C)C(=O)OC(C)C(=O)[O-].[Na+] (stereo not drawn) [Sodium stearoyl lactylate]
NOAEL (chronic, duration: 1 years, M/F, Wistar, no effects): 2200 mg/kg-day

CC(=O)SC1=C(C)OCC1 [2-Methyl-3-thioacetoxy-4,5-dihydrofuran]
NOAEL (subchronic, duration: 13 weeks, oral, diet, M/F, Wistar, hematological): 1.4 mg/kg-day | NOEL (subchronic, duration: 90 days, oral, diet, M/F, Wistar, hematological): 1.4 mg/kg-day

CCCCCC/C=C/C(C)=O [3-Decen-2-one]
LD50 (acute, oral, mortality): > 5000 mg/kg-day | NOAEL (developmental, development): ≥ 1000 mg/kg-day

CC(C)=CCC/C(C)=C/CNC(=O)C1CC1 [N-3,7-Dimethyl-2,6-octadienyl cyclopropylcarboxamide, (2E)-]
NOAEL [1]: 73.3 mg/kg-day

C=CC(C)=CCC=C(C)C [beta-Ocimene]
NOAEL [2]: 44 mg/kg-day

CCCCCCCCCC(C)=O [2-Undecanone]
NOAEL (subchronic, duration: 90 days, oral, clinical signs): 50 mg/kg-day

CC(C)(C)C1CCC(O)CC1 (stereo not drawn) [4-tert-Butylcyclohexanol]
NOAEL (reproduction developmental, clinical signs): 31.5 mg/kg-day | NOAEL (short-term, duration: 28 days, clinical signs): 30 mg/kg-day

CCC(S)S [1,?1-?Propanedithiol]
NOAEL [2]: 0.705 mg/kg-day (2×) and 0.703 mg/kg-day (2×)

SCc1ccco1 [2-Furylmethanethiol]
NOAEL (subchronic, duration: 90 days, oral, gavage, M/F, body weight): 3 mg/kg-day

O=Cc1ccco1 [Furfural]
NOEL (subchronic, duration: 90 days, oral, diet, M/F, Fischer 344, hematological): 54 mg/kg-day

CCOC(=O)CCCSC(C)=O [Ethyl 4-(acetylthio)butyrate]
NOEL (subchronic, duration: 13 weeks, oral, diet): 6.5 mg/kg-day | NOAEL (subchronic, duration: 90 days, oral): 6.63 mg/kg-day | NOAEL [1]: 6.63 mg/kg-day
